Measured values from patent publication EP1205473A1, “VESAMICOL PIPERAZINE DERIVATIVES AND DRUGS CONTAINING THE SAME” (DAIICHI RADIOISOTOPE LABORATORIES, LTD., priority 1999, dated 2001).

How the values were obtained:
vesamicol receptors [1] = biological target: T1, vesamicol receptors (Rattus norvegicus, UniProt Q62666); assay: Inhibition experiment: inhibition of binding of radioactive-iodine-labeled DRC140 to P2 fractions; design: Synaptic vesicles were extracted and separated from the brain of a rat; from tissue; host or cells: rat brain without cerebellum: P2, crude synaptic vesicles, purified synaptic vesicles
T1 sequence (Q62666 1-530): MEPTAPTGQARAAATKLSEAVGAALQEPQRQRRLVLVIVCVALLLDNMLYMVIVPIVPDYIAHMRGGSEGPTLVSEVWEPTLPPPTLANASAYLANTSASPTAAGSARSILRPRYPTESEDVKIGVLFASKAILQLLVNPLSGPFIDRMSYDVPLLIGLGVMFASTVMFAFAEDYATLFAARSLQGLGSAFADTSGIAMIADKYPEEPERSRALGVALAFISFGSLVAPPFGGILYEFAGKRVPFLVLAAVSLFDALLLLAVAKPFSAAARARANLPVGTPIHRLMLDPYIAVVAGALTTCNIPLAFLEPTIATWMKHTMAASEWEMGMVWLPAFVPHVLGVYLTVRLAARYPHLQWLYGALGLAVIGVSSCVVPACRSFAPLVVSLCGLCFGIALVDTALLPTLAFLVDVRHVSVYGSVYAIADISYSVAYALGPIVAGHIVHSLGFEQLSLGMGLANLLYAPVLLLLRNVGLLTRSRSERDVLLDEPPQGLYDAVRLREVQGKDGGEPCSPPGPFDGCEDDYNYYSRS

vesamicol receptors [2] = biological target: T1, vesamicol receptors; assay: Receptor binding test: inhibition of I-125 labeled 5-iodobenzo vesamicol binding to brain homogenate; design: from tissue; host or cells: rat brain without cerebellum, P2 fraction; species or system Male Wistar rats; details: Inhibitive concentration at 50% (IC50), Vesamicol receptor, Table 5; incubated three hours at 37°C; no unit printed in table (b19 gives nM for DRC140)
Protocol: (§1) Properties relating to binding of the vesamicol piperazine derivatives of the present invention to various receptors were examined as follows. Specifically, ligands which combine with each receptor were incubated together with homogenates prepared as follows.
To measure affinity of vesamicol receptors, I-125 labeled 5-iodobenzo vesamicol (synthesized and labeled according to Jung et al., J. Med. Chem. 33, 2065-2068, 1990) was added to a brain homogenate prepared as follows. The vesamicol piperazine derivatives synthesized in the Examples were added at various concentrations. The mixture was then incubated for three hours at 37°C.
(§2) B (%) =((1 0 0 × [U])^(∩))/([ I C50 (])^(∩) (+ [U])^(∩)) [formula] wherein B(%) is the proportion of specific binding in the total binding, n indicates a Hill coefficient, and U is the concentration of unbound ligand.
Male Wistar rats were anesthetized with ether and were decapitated. The brains were immediately extracted. The cerebella were removed from the brains. 0.32 M sucrose (containing 4 mM HEPES (pH 7.4)) in an amount of five times the wet amount (weight) of this sample was added. The sample was homogenized by a potter-type homogenizer for 12 strokes while cooling with ice. 0.32 M sucrose in the same amount as the homogenate (total: 10 times the wet amount of the original sample) was added. The suspension thus obtained was centrifuged for 5 minutes at 1,000 x g. The precipitate was removed. The supernatant liquid was centrifuged at 9,200 x g for 15 minutes to separate the precipitate from the supernatant liquid. P2 fractions were suspended in a Tris-HCl buffer (pH 7.4) for binding experiments and stored at -80°C until the start of the binding experiment.

sigma receptors = biological target: T2, sigma receptors (Cavia porcellus, UniProt Q60492); assay: Receptor binding test: inhibition of tritium-labeled (+) pentazocine binding to brain homogenate; design: species or system male guinea pig
T2 construct: The brain was immediately extracted; The cerebellum was removed from the brain; from tissue; host or cells: guinea pig brain without cerebellum, membrane pellet
Protocol: as §1
To measure affinity to sigma receptors, tritium-labeled (+) pentazocine was added to a brain homogenate prepared as follows. The vesamicol piperazine derivatives synthesized in the Examples were added at various concentrations, and the mixture was incubated for two hours at room temperature.
as §2
A male guinea pig was anesthetized with ether and was decapitated. The brain was immediately extracted. The cerebellum was removed from the brain. 10 mM Tris-sucrose buffer solution (0.32 M sucrose + 10 mM Tris-HCl (pH 7.4)) was added in the amount of 10 ml/g of the tissue. The mixture was homogenized by a potter-type homogenizer for 6-10 strokes. The homogenate was centrifuged at 1,000 x g for 10 minutes at 4°C and the supernatant liquid was collected. The resulting pellets were suspended in the Tris-sucrose buffer solution at the concentration of 2 ml/g, followed by centrifugation at 1,000 x g for 10 minutes at 4°C. The supernatant liquids obtained by the two centrifugation at 1,000 x g were combined and centrifuged at 31,000 x g for 15 minutes at 4°C. The resulting pellets were suspended in a 10 mM Tris-HCl buffer solution (pH 7.4) at a concentration of 3 ml/g of tissue and incubated for 30 minutes at 25°C. After incubation, the suspension was centrifuged at 31,000 x g for 15 minutes at 4°C. The pellets obtained were suspended in a 10 mM Tris-HCl buffer solution (pH 7.4) to make a final concentration of 1.53 ml/g of tissue. The suspension was homogenized by a potter-type homogenizer for 5 strokes. The homogenate was stored at -80°C until the start of the experiment.

[3] = inhibitive concentration at 50% (IC50), Receptor Vesamicol
[4] = Inhibitive concentration at 50% (IC50), Sigma α-1 receptor
[5] = inhibitive concentration at 50% (IC50), Receptor Sigma-1
[6] = Table 7, P2 fractions, inhibition of radioactive-iodine-labeled DRC140 binding, Binding site names the inhibitor's own site, read-out: IC50 (nM) Average ± S.D

T2 sequence (Q60492 whole entry): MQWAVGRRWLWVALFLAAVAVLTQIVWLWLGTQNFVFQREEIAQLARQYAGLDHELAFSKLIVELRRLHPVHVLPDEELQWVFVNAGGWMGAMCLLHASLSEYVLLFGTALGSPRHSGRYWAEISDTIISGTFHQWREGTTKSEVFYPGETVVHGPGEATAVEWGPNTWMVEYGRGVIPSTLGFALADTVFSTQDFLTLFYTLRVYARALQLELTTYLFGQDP

Compound | IC50 (vesamicol receptors [2]) [nM] | IC50 (vesamicol receptors [1]; [3]) [nM] | IC50 (sigma receptors; [5]) [nM] | also measured
5-iodobenzovesamicol [(+)-IBVM, reference compound] | – | – | – | IC50 (vesamicol receptors [1]; read-out: inhibitive concentration at 50% (IC50), Receptor Vesamicol, Table 9, high purity derivatives (HPLC purified), I-125 labeled DRC140, P2 fractions, 3 hours at 37°C, unit inferred): 0.5 nM
O[C@@H]1Cc2cccc(I)c2C[C@H]1N1CCN(c2ccccn2)CC1 (racemic) [DRE328, (±)-trans-5-iodo-2-hydroxy-3-[4-[2-pyridyl]-piperazinyl]tetralin] | 38.4 | – | – | –
Cc1ccccc1N1CCN([C@@H]2Cc3c(I)cccc3C[C@H]2O)CC1 (racemic) [DRE334, (±)-trans-5-iodo-2-hydroxy-3-[4-[2-methylphenyl]piperazinyl]tetralin] | 0.72 | 0.74 | 4480 | IC50 (sigma receptors; [4]): 109 nM
Cc1ccccc1N1CCN([C@@H]2Cc3cccc(I)c3C[C@H]2O)CC1 (racemic) [DRE335, (+)-trans-8-iodo-2-hydroxy-3-[4-[2-methylphenyl]piperazinyl]tetralin] | 2.8 | – | – | –
Cc1ccc(C)c(N2CCN([C@@H]3Cc4c(I)cccc4C[C@H]3O)CC2)c1 (racemic) [DRE348, (±)-trans-5-iodo-2-hydroxy-3-[4-[2,5-dimethylphenyl]piperazinyl]tetralin] | 0.78 | 1.16 | 5570 | IC50 (sigma receptors; [4]): 1500 nM
CCc1ccccc1N1CCN([C@@H]2Cc3c(I)cccc3C[C@H]2O)CC1 (racemic) [DRE353, (±)-trans-5-iodo-2-hydroxy-3-[4-[2-ethylphenyl]piperazinyl]tetralin] | 8.74 | 1.1 | 5110 | IC50 (sigma receptors; [4]): 6900 nM
Cc1cccc(N2CCN([C@@H]3Cc4c(I)cccc4C[C@H]3O)CC2)c1C (racemic) [DRE354, (±)-trans-5-iodo-2-hydroxy-3-[4-[2,3-dimethylphenyl]piperazinyl]tetralin] | 1.41 | 1.67 | 4560 | IC50 (sigma receptors; [4]): 428 nM
Cc1ccc(C)c(N2CCN([C@@H]3Cc4cc(I)ccc4C[C@H]3O)CC2)c1 (racemic) [DRE365, (±)-trans-6-iodo-2-hydroxy-3-[4-[2,5-dimethylphenyl]piperazinyl]tetralin] | 2.9 | – | – | –
Cc1ccc(C)c(N2CCN([C@@H]3Cc4ccc(I)cc4C[C@H]3O)CC2)c1 (racemic) [DRE366, (±)-trans-7-iodo-2-hydroxy-3-[4-[2,5-dimethylphenyl]-piperazinyl]tetralin] | 1.14 | 0.88 | 203 | IC50 (sigma receptors; [4]): 203 nM
COc1ccc(C)c(N2CCN([C@@H]3Cc4c(I)cccc4C[C@H]3O)CC2)c1 (racemic) [DRE378, (±)-trans-5-iodo-2-hydroxy-3-[4-[5-methoxy-2-methylphenyl]piperazinyl]tetralin] | 5.09 | – | – | –
Cc1cccc(N2CCN([C@@H]3Cc4c(I)cccc4C[C@H]3O)CC2)c1 (racemic) [DRF380, (±)-trans-5-iodo-2-hydroxy-3-[4-[3-methylphenyl]piperazinyl]tetralin] | 3.69 | 2.47 | 16300 | –
Cc1ccc(N2CCN([C@@H]3Cc4c(I)cccc4C[C@H]3O)CC2)cc1 (racemic) [DRF381, (±)-trans-5-iodo-2-hydroxy-3-[4-[4-methylphenyl]piperazinyl]tetralin] | 13.9 | 14.7 | 4780 | –
COc1ccccc1N1CCN([C@@H]2Cc3c(I)cccc3C[C@H]2O)CC1 (racemic) [DRF400, (±)-trans-5-iodo-2-hydroxy-3-[4-[2-methoxyphenyl]piperazinyl]tetralin] | – | 1.09 | 28800 | –
CC(=O)Nc1ccccc1N1CCN([C@@H]2Cc3c(I)cccc3C[C@H]2O)CC1 (racemic) [DRF401, (±)-trans-5-iodo-2-hydroxy-3-[4-[N-acetyl-2-aminophenyl]-piperazinyl]tetralin] | – | 0.89 | – | –
Nc1ccccc1N1CCN([C@@H]2Cc3c(I)cccc3C[C@H]2O)CC1 (racemic) [DRF402, (±)-trans-5-iodo-2-hydroxy-3-[4-[2-aminophenyl]piperazinyl]tetralin] | – | 0.63 | – | –
Oc1ccccc1N1CCN([C@@H]2Cc3c(I)cccc3C[C@H]2O)CC1 (racemic) [DRF403, (±)-trans-5-iodo-2-hydroxy-3-[4-[2-hydroxyphenyl]piperazinyl]tetralin] | – | 2.42 | 3030 | –
Nc1ccccc1N1CCN([C@@H]2Cc3cc(I)ccc3C[C@H]2O)CC1 (racemic) [DRG446, (±)-trans-6-iodo-2-hydroxy-3-[4-[2-aminophenyl]piperazinyl]tetralin] | – | 0.38 | 544 | –
Cc1ccccc1N1CCN([C@@H]2Cc3c(I)cccc3C[C@H]2O)CC1 (single isomer, unassigned) [DRE341, (+)-trans-5-iodo-2-hydroxy-3-[4-[2-methylphenyl]piperazinyl]tetralin] | – | 1.96 | – | –
Nc1ccccc1N1CCN([C@@H]2Cc3c(I)cccc3C[C@H]2O)CC1 (single isomer, unassigned) [DRF419, (-)-trans-5-iodo-2-hydroxy-3-[4-[2-aminophenyl]piperazinyl]tetralin] | – | 0.3 | 4710 | –
OC1CCCCC1N1CCC(c2ccccc2)CC1 (single isomer, unassigned; (+)) [(+)-Vesamicol, 2-(4-phenyl-piperidino)cyclohexanol, reference compound] | – | – | – | IC50 (vesamicol receptors [1]; IC50 (nM) Average ± S.D): > 5000 nM
COc1ccccc1N1CCN(CCCNc2c(C)c(=O)n(C)c(=O)n2C)CC1 [5-Methylurapidil, reference compound] | – | – | – | IC50 (vesamicol receptors [1]; IC50 (nM) Average ± S.D): > 5000 nM
CC1=NN=C(c2ccc(N)cc2)c2cc3c(cc2C1)OCO3 [GYKI52466, reference compound] | – | – | – | IC50 (vesamicol receptors [1]; IC50 (nM) Average ± S.D): > 5000 nM
CN(C(=O)Cc1ccc(Cl)c(Cl)c1)C(CN1CCCC1)c1cccc(OCC(=O)O)c1 (stereo not shown) [ICI204, 448, reference compound] | – | – | – | IC50 (vesamicol receptors [1]; IC50 (nM) Average ± S.D): > 5000 nM
COc1ccccc1N1CCN(CCCCN2C(=O)c3ccccc3C2=O)CC1 [NAN-190, reference compound] | – | – | – | IC50 (vesamicol receptors [1]; [6]): > 5000 nM
CNC(=O)Oc1ccc2c(c1)[C@]1(C)CCN(C)[C@@H]1N2C [Physostigmine, reference compound] | – | – | – | IC50 (vesamicol receptors [1]; IC50 (nM) Average ± S.D): > 5000 nM
COC(=O)[C@H]1[C@H]2C[C@@H]3c4[nH]c5cc(OC)ccc5c4CCN3C[C@H]2C[C@@H](OC(=O)c2cc(OC)c(OC)c(OC)c2)[C@@H]1OC [Reserpine, reference compound] | – | – | – | IC50 (vesamicol receptors [1]; [6]): > 5000 nM
